From patent publication US5200409A, “Composition and use of substituted 1,3-dithiolo-and 1,4-dithiinoquinoxalines as an antimicrobial” (The Dow Chemical Company, priority 1992, dated 1993)
Values after ≈ are worked out from the molar mass of the structure shown. Where two headings read alike, the source gives them in different places.

Tests used:
[1] = test system: Enterobacter aerogenes (Ea); assay: Minimum inhibitory concentration (MIC) in nutrient agar; format: cell-based, Enterobacter aerogenes ATCC 13048; details: Klebsiella aerogenes
How it was run: (§1)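 Agar dilution: compound from a 1% acetone/water solution is mixed into nutrient agar at pH 6.8 (neutral) or pH 8.2 (alkaline, tricine-buffered) at final 500 to 1.0 ppm plus zero. Dried plates were replicator-inoculated with 10^8 CFU/ml suspensions and incubated 48 h at 30° C, then scored for growth.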

[2] = test system: Escherichia coli (Ec); assay: as above; format: cell-based, Escherichia coli ATCC 11229
How it was run: as §1

[3] = test system: Klebsiella pneumoniae (Kp); assay: as above; format: cell-based, Klebsiella pneumoniae ATCC 8308
How it was run: as §1

[4] = test system: Proteus vulgaris (Pv); assay: as above; format: cell-based, Proteus vulgaris ATCC 881
How it was run: as §1

[5] = test system: Pseudomonas aeruginosa (PRD-10); assay: as above; format: cell-based, Pseudomonas aeruginosa ATCC 15442
How it was run: as §1

[6] = test system: Pseudomonas aeruginosa (Pa); assay: as above; format: cell-based, Pseudomonas aeruginosa ATCC 10145; details: 48 hours
How it was run: as §1

[7] = test system: Salmonella choleraesuis (Sc); assay: as above; format: cell-based, Salmonella choleraesuis ATCC 10708; details: Salmonella enterica
How it was run: as §1

[8] = test system: Staphylococcus aureus (Sa); assay: as above; format: cell-based, Staphylococcus aureus ATCC 6538
How it was run: as §1

[9] = test system: Trichoderma viride (Tv); assay: Minimum inhibitory concentration (MIC) in malt yeast agar; format: cell-based, Trichoderma viride ATCC 8678; details: 72 h, read-out: Minimum Inhibitory Concentration, Tv
How it was run: (§2)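 Compound dispersed in malt yeast agar at final 500, 250, 100, 50, 25, 10, 5, 2.5, 1.0 and 0 ppm (from 1% acetone/water solution); plates dried 24 h, then inoculated with saline/octylphenoxy polyethoxy ethanol suspensions of 7-day cultures diluted 1:9. Incubated at 30° C; read at 48 h for yeast, 72 h for fungi.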

[10] = test system: Aureobasidium pullulan (Ap); assay: as above; format: cell-based, Aureobasidium pullulan ATCC 16622; details: read-out: Minimum Inhibitory Concentration, Ap
How it was run: as §2

[11] = test system: Fusarium oxysporum (Fo); assay: as above; format: cell-based, Fusarium oxysporum ATCC 48112; details: read-out: Minimum Inhibitory Concentration, Fo
How it was run: as §2

[12] = test system: Aspergillus niger (An); assay: as above; format: cell-based, Aspergillus niger ATCC 16404; details: read-out: Minimum Inhibitory Concentration, An
How it was run: as §2

[13] = test system: Penicillium chrysogenum (Pc); assay: as above; format: cell-based, Penicillium chrysogenum ATCC 9480; details: read-out: Minimum Inhibitory Concentration, Pc
How it was run: as §2

[14] = 48 h, pH 8.2, read-out: Minimum Inhibitory Concentration, Ea
[15] = 48 h, pH 8.2, read-out: Minimum Inhibitory Concentration, Ec
[16] = 48 h, pH 8.2, read-out: Minimum Inhibitory Concentration, Kp
[17] = pH 6.8, nutrient agar, 30° C., 48 hours, read-out: Minimum Inhibitory Concentration, Kp
[18] = 48 h, pH 8.2, read-out: Minimum Inhibitory Concentration, Pv
[19] = 48 h, pH 8.2, read-out: Minimum Inhibitory Concentration, PRD
[20] = 48 h, pH 8.2, read-out: Minimum Inhibitory Concentration, Sc
[21] = 48 h, pH 6.8, read-out: Minimum Inhibitory Concentration, Sa
[22] = pH 8.2, nutrient agar, 30° C., 48 hours, read-out: Minimum Inhibitory Concentration, Sa
[23] = malt yeast agar, 30° C., 72 hours for fungi
[24] = 48 h, pH 6.8, read-out: Minimum Inhibitory Concentration, Ea
[25] = 48 h, pH 6.8, read-out: Minimum Inhibitory Concentration, Ec
[26] = 48 h, pH 6.8, read-out: Minimum Inhibitory Concentration, Kp
[27] = 48 h, pH 6.8, read-out: Minimum Inhibitory Concentration, Pv
[28] = 48 h, pH 6.8, read-out: Minimum Inhibitory Concentration, PRD
[29] = 48 h, pH 6.8, read-out: Minimum Inhibitory Concentration, Sc
[30] = 48 h, pH 8.2, read-out: Minimum Inhibitory Concentration, Sa
[31] = malt yeast agar, 30° C., 48 hours for yeast and 72 hours for fungi
[32] = pH 6.8, nutrient agar, 30° C., 48 hours, read-out: Minimum Inhibitory Concentration, Sa

Structure (SMILES) | MIC [1, 14] | MIC [2, 15] | MIC [3, 16] | MIC [3, 17] | MIC [4, 18] | MIC [5, 19] | MIC ([6]; pH 6.8, 30° C.) | MIC ([6]; pH 8.2, 30° C.) | MIC [7, 20] | MIC [8, 21] | MIC [9] | MIC [10] | MIC [1, 24] | MIC [2, 25] | MIC [4, 27] | MIC [5, 28] | MIC [7, 29] | MIC [8, 30] | MIC ([12]; 72 h) | MIC ([13]; 72 h) | further results
N#CC1=C(C#N)Sc2nc3cc([N+](=O)[O-])ccc3nc2S1 [A, 7-nitro-1,4-dithiino-(2,3-b)-quinoxaline-2,3-dicarbonitrile] | > 500 µg/mL | > 500 µg/mL | 500 µg/mL (≈ 1600 µM) | 25 µg/mL (≈ 79.8 µM) | > 500 µg/mL | > 500 µg/mL | 100 µg/mL (≈ 319 µM) | > 500 µg/mL | > 500 µg/mL | < 10 µg/mL | 10 µg/mL (≈ 31.9 µM) | 2.5 µg/mL (≈ 7.98 µM) |  |  |  |  |  |  |  |  | MIC ([1]; pH 6.8, nutrient agar, 30° C., 48 hours, read-out: Minimum Inhibitory Concentration, Ea): 100 µg/mL (≈ 319 µM); MIC ([2]; pH 6.8, nutrient agar, 30° C., 48 hours, read-out: Minimum Inhibitory Concentration, Ec): 25 µg/mL (≈ 79.8 µM); MIC ([4]; pH 6.8, nutrient agar, 30° C., 48 hours, read-out: Minimum Inhibitory Concentration, Pv): 50 µg/mL (≈ 160 µM); MIC ([5]; pH 6.8, nutrient agar, 30° C., 48 hours, read-out: Minimum Inhibitory Concentration, PRD): 250 µg/mL (≈ 798 µM); MIC ([7]; pH 6.8, nutrient agar, 30° C., 48 hours, read-out: Minimum Inhibitory Concentration, Sc): 50 µg/mL (≈ 160 µM); MIC [8, 22]: 100 µg/mL (≈ 319 µM); MIC [11, 23]: 2.5 µg/mL (≈ 7.98 µM)
N#CC1=C(C#N)Sc2nc3cc([N+](=O)[O-])c([N+](=O)[O-])cc3nc2S1 [B, 7,8-Dinitro-1,4-dithiino-(2,3-b)quinoxaline-2,3-dicarbonitrile] | > 500 µg/mL | > 500 µg/mL | > 500 µg/mL |  | > 500 µg/mL | > 500 µg/mL | > 500 µg/mL | > 500 µg/mL | > 500 µg/mL | < 10 µg/mL | 50 µg/mL (≈ 140 µM) | 5 µg/mL (≈ 14 µM) | > 500 µg/mL | 250 µg/mL (≈ 698 µM) | > 500 µg/mL | > 500 µg/mL | 500 µg/mL (≈ 1400 µM) | < 10 µg/mL | 25 µg/mL (≈ 69.8 µM) | 10 µg/mL (≈ 27.9 µM) | MIC [3, 26]: 250 µg/mL (≈ 698 µM); MIC ([11]; 72 h): 25 µg/mL (≈ 69.8 µM)
N#CC1=C(C#N)Sc2nc3cc(Cl)ccc3nc2S1 [C, 7-chloro-1,4-dithiino-(2,3-b)-quinoxaline-2,3-dicarbonitrile] | > 500 µg/mL | > 500 µg/mL | > 500 µg/mL | > 500 µg/mL | > 500 µg/mL | > 500 µg/mL | > 500 µg/mL | > 500 µg/mL | > 500 µg/mL | 50 µg/mL (≈ 165 µM) | 250 µg/mL (≈ 826 µM) |  | > 500 µg/mL | > 500 µg/mL | > 500 µg/mL | > 500 µg/mL | > 500 µg/mL |  |  |  | MIC [8, 22]: 50 µg/mL (≈ 165 µM); MIC [12, 23]: 25 µg/mL (≈ 82.6 µM); MIC [13, 23]: < 10 µg/mL; MIC [10, 31]: < 10 µg/mL; MIC [11, 23]: 25 µg/mL (≈ 82.6 µM)
Cc1ccc2nc3c(nc2c1)SC(C#N)=C(C#N)S3 [D, 7-Methyl-1,4-dithiino-(2,3-b)quinoxaline-2,3-dicarbonitrile] | > 500 µg/mL | > 500 µg/mL | > 500 µg/mL | > 500 µg/mL | > 500 µg/mL | > 500 µg/mL | > 500 µg/mL | > 500 µg/mL | > 500 µg/mL |  | 100 µg/mL (≈ 354 µM) |  | > 500 µg/mL | > 500 µg/mL | > 500 µg/mL | > 500 µg/mL | > 500 µg/mL | 500 µg/mL (≈ 1770 µM) | 50 µg/mL (≈ 177 µM) | 50 µg/mL (≈ 177 µM) | MIC [8, 32]: 100 µg/mL (≈ 354 µM); MIC [10, 31]: 25 µg/mL (≈ 88.5 µM); MIC ([11]; 72 h): 50 µg/mL (≈ 177 µM)
N#CC1=C(C#N)Sc2nc3ccccc3nc2S1 [E, 1,4-dithiino-(2,3-b)-quinoxaline-2,3-dicarbonitrile] | > 500 µg/mL | > 500 µg/mL | > 500 µg/mL | 500 µg/mL (≈ 1860 µM) | > 500 µg/mL | > 500 µg/mL | > 500 µg/mL | > 500 µg/mL | > 500 µg/mL |  | 100 µg/mL (≈ 373 µM) |  | > 500 µg/mL | > 500 µg/mL | > 500 µg/mL | > 500 µg/mL | > 500 µg/mL | < 10 µg/mL |  |  | MIC [8, 32]: 25 µg/mL (≈ 93.2 µM); MIC [12, 23]: < 10 µg/mL; MIC [13, 23]: < 10 µg/mL; MIC [10, 31]: < 10 µg/mL; MIC ([11]; 72 h): 50 µg/mL (≈ 186 µM)
N#CC(C#N)=C1Sc2nc3ccc([N+](=O)[O-])cc3nc2S1 [L, 6-nitro-1,3-dithiolo-(4,5-b)-quinoxaline-2-ylidene-propanedinitrile] | > 500 µg/mL | > 500 µg/mL | > 500 µg/mL | > 500 µg/mL | > 500 µg/mL | > 500 µg/mL | > 500 µg/mL | > 500 µg/mL | > 500 µg/mL |  |  | 5 µg/mL (≈ 16 µM) | > 500 µg/mL | > 500 µg/mL | > 500 µg/mL | > 500 µg/mL | > 500 µg/mL | > 500 µg/mL | 2.5 µg/mL (≈ 7.98 µM) | 2.5 µg/mL (≈ 7.98 µM) | MIC [8, 32]: 100 µg/mL (≈ 319 µM); MIC [11, 23]: 10 µg/mL (≈ 31.9 µM)
N#CC(C#N)=C1Sc2nc3cc([N+](=O)[O-])c([N+](=O)[O-])cc3nc2S1 [M, 6,7-dinitro-1,3-dithiolo-(4,5-b)-quinoxaline-2-ylidene-propanedinitrile] | > 500 µg/mL | > 500 µg/mL | > 500 µg/mL |  | > 500 µg/mL | > 500 µg/mL | 500 µg/mL (≈ 1400 µM) | > 500 µg/mL | > 500 µg/mL | < 10 µg/mL | 10 µg/mL (≈ 27.9 µM) | 2.5 µg/mL (≈ 6.98 µM) | > 500 µg/mL | > 500 µg/mL | > 500 µg/mL | > 500 µg/mL | 500 µg/mL (≈ 1400 µM) | 100 µg/mL (≈ 279 µM) | 2.5 µg/mL (≈ 6.98 µM) | 2.5 µg/mL (≈ 6.98 µM) | MIC [3, 26]: 50 µg/mL (≈ 140 µM); MIC ([11]; 72 h): 5 µg/mL (≈ 14 µM)
